# Test system: human skin
# Assay: Human skin contact with acidic solution
# Settings: solution with a pH of less than 0.5
smiles,measurement,value
O=S(=O)(O)O [sulfuric acid],irritation or injury of the hand put into the solution,an irritation would occur within a relatively short span of time

# Source: US20040171687A1 (priority 2002, published 2004)
